Test results from publication PMC9127186, “Molecular Basis Underlying Hepatobiliary and Renal Excretion of Phenolic Acids of Salvia miltiorrhiza Roots (Danshen)” (Frontiers in Pharmacology, 2022).

Experiments:
rat Oatp1a1 = target: T1, rat Oatp1a1 (Rattus norvegicus, UniProt P46720); conditions: 10 min, 100 μM
T1 sequence (P46720 1-670): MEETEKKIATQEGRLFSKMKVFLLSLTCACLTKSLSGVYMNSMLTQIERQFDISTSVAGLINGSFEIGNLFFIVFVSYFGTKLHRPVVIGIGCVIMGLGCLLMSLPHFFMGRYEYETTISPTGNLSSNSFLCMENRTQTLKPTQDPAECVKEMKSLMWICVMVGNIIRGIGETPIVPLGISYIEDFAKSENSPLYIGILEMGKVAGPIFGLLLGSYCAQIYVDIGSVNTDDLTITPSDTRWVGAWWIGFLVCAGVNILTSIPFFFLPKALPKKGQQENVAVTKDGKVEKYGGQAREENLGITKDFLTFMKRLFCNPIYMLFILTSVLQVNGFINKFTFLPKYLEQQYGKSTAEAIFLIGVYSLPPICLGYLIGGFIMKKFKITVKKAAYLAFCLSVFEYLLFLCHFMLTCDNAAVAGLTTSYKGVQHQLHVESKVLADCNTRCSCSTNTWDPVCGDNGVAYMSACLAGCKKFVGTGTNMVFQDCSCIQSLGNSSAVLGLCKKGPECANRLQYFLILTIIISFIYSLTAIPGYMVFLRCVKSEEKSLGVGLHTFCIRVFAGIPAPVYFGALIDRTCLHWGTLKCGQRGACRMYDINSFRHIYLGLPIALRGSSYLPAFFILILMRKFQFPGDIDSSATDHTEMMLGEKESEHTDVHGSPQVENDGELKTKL

rat Oct1 = target: T2, rat Oct1 (Rattus norvegicus, UniProt Q63089); conditions: 10 min, 100 μM
T2 sequence (Q63089 1-556): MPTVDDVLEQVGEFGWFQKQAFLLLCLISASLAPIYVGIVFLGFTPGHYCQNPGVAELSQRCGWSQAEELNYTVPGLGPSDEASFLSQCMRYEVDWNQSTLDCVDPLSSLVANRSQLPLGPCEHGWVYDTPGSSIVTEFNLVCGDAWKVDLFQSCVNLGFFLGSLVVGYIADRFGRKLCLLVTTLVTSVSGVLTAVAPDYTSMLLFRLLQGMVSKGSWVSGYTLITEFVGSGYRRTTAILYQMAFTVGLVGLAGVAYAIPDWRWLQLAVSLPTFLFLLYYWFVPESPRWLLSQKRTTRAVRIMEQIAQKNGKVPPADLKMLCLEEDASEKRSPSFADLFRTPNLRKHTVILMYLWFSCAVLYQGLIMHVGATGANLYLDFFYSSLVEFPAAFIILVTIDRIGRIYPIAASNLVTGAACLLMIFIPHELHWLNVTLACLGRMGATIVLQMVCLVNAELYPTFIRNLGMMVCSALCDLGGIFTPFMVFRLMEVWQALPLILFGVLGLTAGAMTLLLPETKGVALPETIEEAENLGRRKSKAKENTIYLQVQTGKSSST

human PEPT2 = target: T3, human PEPT2 (Homo sapiens, UniProt Q16348); conditions: 10 min, 100 μM, pH 6
T3 sequence (Q16348 1-729): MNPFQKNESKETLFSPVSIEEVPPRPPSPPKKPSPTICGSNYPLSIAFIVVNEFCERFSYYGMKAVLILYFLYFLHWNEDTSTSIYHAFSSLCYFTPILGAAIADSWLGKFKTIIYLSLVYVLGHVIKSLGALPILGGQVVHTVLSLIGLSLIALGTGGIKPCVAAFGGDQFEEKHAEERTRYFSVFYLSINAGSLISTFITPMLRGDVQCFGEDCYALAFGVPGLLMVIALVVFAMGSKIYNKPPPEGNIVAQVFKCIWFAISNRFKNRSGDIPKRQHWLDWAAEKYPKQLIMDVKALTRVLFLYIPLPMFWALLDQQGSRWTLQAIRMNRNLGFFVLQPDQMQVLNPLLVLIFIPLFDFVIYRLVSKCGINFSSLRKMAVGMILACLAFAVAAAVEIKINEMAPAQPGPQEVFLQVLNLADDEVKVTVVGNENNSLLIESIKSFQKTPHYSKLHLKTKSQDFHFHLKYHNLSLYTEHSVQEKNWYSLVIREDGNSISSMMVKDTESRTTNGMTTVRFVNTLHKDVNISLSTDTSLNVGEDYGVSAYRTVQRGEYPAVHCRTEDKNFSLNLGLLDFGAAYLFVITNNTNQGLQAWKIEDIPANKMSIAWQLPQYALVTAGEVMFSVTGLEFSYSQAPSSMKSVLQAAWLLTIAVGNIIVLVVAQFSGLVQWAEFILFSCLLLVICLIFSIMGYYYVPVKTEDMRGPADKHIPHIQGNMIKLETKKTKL

rat Oct2 = target: T4, rat Oct2 (Rattus norvegicus, UniProt Q9R0W2); conditions: 10 min, 100 μM
T4 sequence (Q9R0W2 1-555): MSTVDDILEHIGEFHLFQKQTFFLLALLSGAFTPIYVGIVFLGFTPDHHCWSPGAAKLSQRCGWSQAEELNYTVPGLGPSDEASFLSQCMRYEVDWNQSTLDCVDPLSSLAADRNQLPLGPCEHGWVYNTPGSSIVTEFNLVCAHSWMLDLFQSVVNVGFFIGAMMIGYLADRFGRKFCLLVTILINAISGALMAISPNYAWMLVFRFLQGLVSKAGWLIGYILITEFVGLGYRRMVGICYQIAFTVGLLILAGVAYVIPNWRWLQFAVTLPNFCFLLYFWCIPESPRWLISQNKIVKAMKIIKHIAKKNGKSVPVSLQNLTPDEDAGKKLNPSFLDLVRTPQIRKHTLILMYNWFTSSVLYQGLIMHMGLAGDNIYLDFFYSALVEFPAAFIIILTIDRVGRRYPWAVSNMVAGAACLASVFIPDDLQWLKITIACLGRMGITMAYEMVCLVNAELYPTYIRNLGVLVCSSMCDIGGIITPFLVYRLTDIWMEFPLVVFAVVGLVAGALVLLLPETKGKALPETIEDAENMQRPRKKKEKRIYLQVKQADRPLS

| Structure (SMILES) | TransportTC/TransportMC ratio (net transport ratio) (rat Oatp1a1) | TransportTC/TransportMC ratio (net transport ratio) (rat Oct1) | TransportTC/TransportMC ratio (net transport ratio) (human PEPT2) | TransportTC/TransportMC ratio (net transport ratio) (rat Oct2) |
| --- | --- | --- | --- | --- |
| O=C(/C=C/c1ccc(O)c(O)c1)O[C@H](Cc1ccc(O)c(O)c1)C(=O)O [Rosmarinic acid, rosmarinic acid] | 1.45 ± 0.57 | 1.56 ± 0.13 | 1.12 ± 0.22 | 0.75 ± 0.32 |
| O=C(/C=C/c1ccc(O)c(O)c1/C=C/c1ccc(O)c(O)c1)O[C@H](Cc1ccc(O)c(O)c1)C(=O)O [Salvianolic acid A, salvianolic acid A] | 2.24 ± 0.67 | 1.13 ± 0.19 | 1.14 ± 0.31 | 0.94 ± 0.33 |
